According to patent US4956355A, “Agents for the arrest and therapy of retroviral infections” (Colthurst Limited, priority 1987, dated 1990):
Where two headings read alike, the source gives them in different places.

Assays:
[1] = test system: HIV in activated peripheral blood lymphocytes; assay: Inhibition of HIV mediated cytopathic effects / p24 antigen production in activated peripheral blood lymphocytes; type: cell-based; conditions: for p24 antigen production: activated PBL, about 7 days after infection, FIG. 2
Protocol: (§1) 1. […] All three viral strains were grown in the Tissue Culture Laboratory of the AIDS Activity Division of San Francisco General Hospital where titers of […] infectious units per ml were routinely achieved.
4. HIV soluble p24 antigen detection: Soluble p24 antigens were measured with the Abbott HIV antigen detection system.
(b) Although the VB T lymphoma cell line behaves in a similar manner to peripheral blood CD4 positive T lymphocytes in regard to HIV induced cytopathic effects, the above described experiments were performed on phytohemagglutinin (PHA) activated lymphocytes to determine whether lymphocytes are more or less sensitive to Compounds A and B than is the VB cell line. In this assay system, at the time that multinucleated giant cells appeared within infected lymphocyte cultures, the supernatants were analyzed for the presence of HIV p24 antigens and were titered on indicator VB lymphoma cells to determine the titer of infectious virus present at each point.
To test whether the effects of compounds A and B on acute VB T lymphoma infection would be mimicked by activated peripheral blood lymphocytes (PBC), HIV at a multiplicity of infection of one was added to lymphocytes that had been activated for 48 hours with 2 μg per ml of PHA. After the initial infection for one hour, the activated lymphocytes were washed and resuspended for the one week of culture. Multinucleated giant cells began to form approximately 7 days after the initial infection, at which time the culture supernatants were harvested and tested for the presence of HIV p24 antigens. The accumulation of HIV p24 antigens in the supernatant is representative of production of HIV from infected cells.

HIV in human macrophages = assay: Inhibition of cytoplasmic HIV p24 antigen in HIV-infected macrophages; type: cell-based; conditions: FIG. 4
Protocol: as §1
(§2) 2. Source of cells: The VB cell line used in Example 1 is a T lymphoma cell line that is highly susceptible to infection with HIV, and expresses high levels of cell surface CD4 molecules. This cell line forms syncytia within two days after infection with all strains of HIV tested to date. […] This is used to quantitate infection in the absence of syncytial formation, infection being quantitated by immunofluorescence assays. The HXB/H9 cell line (Example 6) is an H9 cell population that chronically produces the HTLV-IIIB strain of HIV and is utilised in experiments testing antiviral effects on chronically infected cell lines. Human macrophages were prepared from peripheral blood mononuclear cells either obtained from the blood bank as a buffy coat, or as a leukophoresis preparation. Crowe et al. supra have devised an assay system that allows quantitation of HIV infection, and inhibition of infection using immunocytofluorographic analysis. In order to quantitate HIV infection in macrophages, they grow macrophages in Teflon (Trade Mark) culture vessels which maintain macrophages in suspension in vitro culture for up to six months. Cell surface and cytoplasmic immunofluorescence staining is then performed to quantitate antigens in macrophages by flow cytometry.
3. Flow cytometry: An Ortho Cytofluorgraf II-S (Trade Mark) that has a biohazard containment flow cell was used for analysis of HIV infected samples. HIV p24 antigens were detected utilizing a mouse monoclonal anti-p24 (du Pont), and mouse antibodies were identified utilizing an FITC conjugated goat anti-mouse IgG. […]
The cells from the experiment described in Example 3 were analysed, and the cytoplasm was analysed for the presence of HIV p24 to directly test whether HIV p24 antigen production was inhibited within those infected cells. […]

HIV in HXB/H9 cell line = assay: Antiviral testing of chronically HIV infected cell line HXB; type: cell-based; conditions: other than killing with compound B at 10^-4 molar
Protocol: as §1
as §2, with “Human macrophages were prepared from peripheral blood mononuclear cells either obtained from the blood bank as a buffy coat, or as a leukophoresis preparation.” left out, “cytometry. […]” for “cytometry.”

normal human macrophages = assay: Nonspecific toxicity to normal human macrophages; type: cell-based; conditions: 10^-4 to 10^-8 molar
Protocol: 7. Analysis of nonspecific toxicity to the target cells with Compounds A and B. The VB, H9 and HXB cell lines were exposed to different concentrations of Compounds A and B as were normal human macrophages for the length of time the drug was in contact with each cell line as described in the above assays. Cell numbers were counted, and live versus dead were determined by Trypan blue exclusion assays. These tests were required to determine a therapeutic index between nonspecific toxic effects on the described cells, compared with potential effective antiviral effects in vitro (Example 6).

[2] = test system: glucose-6-phosphate dehydrogenase; conditions: cited from earlier work
NADH oxidase = conditions: cited from earlier work
[3] = in vivo; cited from earlier work

Structure (SMILES): C[C@]12CC[C@H](O)CC1=CC[C@@H]1[C@@H]2CC[C@]2(C)C(=O)CC[C@@H]12 [A, dehydroepiandrosterone]
- p24 antigen production ([1]; 10^-4 molar): moderately inhibited
- p24 antigen production ([1]; 10^-5 molar): slightly less inhibited
- antiviral effects in comparison with AZT, lymphocytes ([1]; acute infection): inferior
- antiviral effect in acute infection studies of lymphocytes ([1]; acute infection, conclusions): mild antiviral effect
- HIV p24 cytoplasmic antigen production (HIV in human macrophages; 10^-4 molar, three donors): substantially inhibited
- inhibiting HIV p24 antigen production within infected macrophages (HIV in human macrophages; dilutions even at 10^-6 molar): active
- inhibition of HIV production of cytopathic effects in chronically infected lymphoma cell line (HIV in HXB/H9 cell line): no specific inhibition
- toxicity in normal macrophages (normal human macrophages): not appreciable toxicity
- effect on glucose-6-phosphate dehydrogenase [2]: inhibits glucose-6-phosphate dehydrogenase
- effect on glucose-6-phosphate dehydrogenase ([2]; listed as DHEA): inhibitory effect
- effect on NADH oxidase (NADH oxidase): inhibitory effect
- metabolic disorders and liver cirrhosis [3]: suppress some of the metabolic disorders and liver cirrhosis
- pain in ischemic heart disease, especially angina pectoris [3]: reduces pain
